According to article PMC12298629, “New Derivatives of Caracasine Acid with Anti-Leukemic Activity and Limited Effectiveness in Spheroid Cultures” (Pharmaceuticals, 2025):

Key:
caspase 3 = assay: Caspase 3 activity in lysed HCT116 cells from 2D and spheroids; assay type: cell-based, human; conditions: 12 h; for Caspase 3 activity, spheroid culture: HCT116 parental spheroids, 25 µM (cisplatin 15 μM); for Caspase 3 activity, 2D culture: HCT116 parental, 25 µM
Procedure: (§1) The assay was designed to evaluate the impact of various compounds on caspase activity using a standardized quantity of cell protein lysates after 12 h of incubation. The parental line HCT116 served as the basis for these experiments. Three distinct caspases were examined employing the fluorescence assay kits from Calbiochem (San Diego, CA, USA), specifically a fluorometric caspase-8 assay kit and a fluorimetric caspase-3 assay kit. Additionally, the fluorometric kit from Abcam was utilized to assess caspase-9 activity. Due to the variations in protocols for each caspase, separate plates were prepared for each assay, encompassing both two-dimensional (2D) cell cultures and spheroids. The compound concentrations were established at 25 µM, and assays were conducted in quintuplicate following a 12-h incubation period. The cells were harvested from the plates using the standard trypsin-EDTA solution (Merck Sigma Aldrich, Saint Louis, MO, USA), washed, and counted before lysis, as described in each kit. Cell processing adhered to the guidelines provided by the respective companies, and protein concentration was calculated and standardized using the standard BCA assay. Fluorescent readings were captured using the Enspire apparatus (Perkin-Elmer, MA, USA). Positive controls utilized included staurosporine at a concentration of 5 μM and cisplatin at 15 μM. The kits provided their own standards; however, to normalize all the readings between cultures, types, and treatments, the results were expressed as a percentage relative to the positive control, staurosporine, in 2D culture. […] A total of three separate assays were conducted for each caspase.

normal human leukocytes = tested on: normal human leukocytes; parameters: method as in PMID 31449809, PMID 35430982; conditions: 0.1 nM to 50 μM in 0.01% DMSO; cited from earlier work
BJ LD = assay: Cytotoxic MTS assay, BJ LD fibroblasts (doxorubicin-resistant); assay type: cell-based; conditions: doxorubicin-resistant human fibroblasts, 72 h, median of five assays
Excerpt: (§2) The cancer cell lines used in the cytotoxic assays were acquired from the American Tissue Culture Collection (ATCC) (Manassas, VA, USA) and maintained as described previously. The MRC-5 and BJ human fibroblasts were used as non-tumoral control cells. The (MRC-5 LD and BJ LD) are also human fibroblast cell lines resistant to doxorubicin. […] The Raji and Ramos cell lines correspond to B-cell leukemia. Other cells, such as U2OS, represent a child osteosarcoma, while HCT116 is a colorectal tumor cell line. (HCT116p53^−/−, Horizon Discovery Ltd., Cambridge, UK) is a similar cell line with its p53 gene knocked down, serving as a model of human cancer frequently associated with a poor prognosis. The cells were maintained in Nunc/corning 80 cm^2 plastic tissue culture flasks and cultured in a cell culture medium according to ATCC or Horizon recommendations (McCoy, DMEM/RPMI 1640 with 5 g/L glucose, 2 mM glutamine, 100 U/mL penicillin, […] streptomycin, 10% fetal calf serum, and NaHCO3). The compounds were freshly dissolved in DMSO. The final concentration of DMSO was 0.01% in the cell culture.
(§3) The in vitro cytotoxicity of compounds (1–7) was assessed using the standard 3-(4,5-dimethyl-thiazol-2yl)-5-(3-carboxymethoxyphenyl)-2-(sulfophenyl)-2H-tetrazolium (MTS). The assay was performed at the Institute of Molecular and Translational Medicine using a robotic platform (High-ResBiosolutions, Beverly, MA, USA). Cell suspensions were prepared and diluted according to the specific cell type and the expected target cell density (25,000–35,000 cells/mL, based on cell growth characteristics). An automatic pipettor (30 μL) was used to add cells into 384-well microtiter plates. All tested compounds were dissolved in 100% DMSO, and four-fold dilutions of the intended test concentrations were added in 0.15 μL aliquots at time zero to the microtiter plate wells by the echo acoustic non-contact liquid handler Echo550 (Labcyte, San Jose, CA, USA). The assays were accomplished in technical duplicates and at least three biological replicates. The cells were incubated with the tested compound for 72 h at 37 °C in a 5% CO2 atmosphere with 100% humidity. At the end of the incubation period, cells were assayed using the MTS test. Aliquots (5 μL) of the MTS stock solution were pipetted into each well and incubated for 1–4 h. After this incubation period, the optical density (OD) was measured at 490 nm using an Envision reader (PerkinElmer, Waltham, MA, USA). Tumor cell survival (TCS) was calculated using the following equation: TCS = (OD drug-exposed well/mean OD control wells) × 100%. The IC50 value, representing the concentration of the compound lethal to 50% of the tumor cells, was calculated from the corresponding dose-response curves using Dotmatics software (Updated version 2022, London, UK). After three days of incubation on the cancer cell lines and normal fibroblasts, the […] (IC50) were obtained. Five assays were performed for each cell line. The standard error of the assays was lower than 10%, as assessed by the triplicate assays.

U2OS = assay: Cytotoxic MTS assay, U2OS 2D; assay type: cell-based; conditions: human tumors 2D, 72 h, median of five assays
Excerpt: as §2, §3

A549 spheroids = assay: Spheroid viability assay (CellTiter-Glo 3D), A549 spheroids; assay type: cell-based; conditions: 72 h, 100 pM to 50 μM
Procedure: (§4) Spheroid culture aims to analyze the drug’s effect on complex structures resembling solid tumors. The spheroids were prepared using the specific nonadherent plates for spheroid formation (Nunc Sphera, Thermo Fisher, Waltham, MA, USA) according to the simple protocol outlined by the manufacturer. The cell lines HCT116 parental, HCT116KOTp53, A549, and U2OS were cultured at a density of 2500 cells per well using medium containing 10% fetal calf serum and antibiotics: McCoy’s 5A medium for HCT116, F-12K (Kaighn’s Modified) for A549, and Dulbecco’s Modified Eagle Medium (DMEM). The cells were grown in culture for 48 h as recommended by the manufacturer and as described by Das et al. and Muñoz-Garcia et al..
(§5) The cell viability of the treated spheroids was assessed using the kit CellTiter-Glo 3D (Promega Corporation, Madison, WI, USA). The kit is designed to measure ATP as an indicator of viability, generating a luminescent readout that is more sensitive than colorimetric or fluorescence-based methods. The spheroids were cultivated with compounds at concentrations ranging from 100 pM to 50 μM in triplicate for 72 h, and the luminescence was measured using the Enspire apparatus (PerkinElmer). A standard curve was performed for each analysis as recommended by the manufacturer.

caspase 9 = assay: Caspase 9 activity in lysed HCT116 cells from 2D and spheroids; assay type: cell-based, human; conditions: HCT116 parental spheroids, 25 µM (cisplatin 15 μM), 12 h
Procedure: as §1

HCT116 par = assay: Cytotoxic MTS assay, HCT116 parental 2D; assay type: cell-based; conditions: 72 h, median of five assays
Excerpt: as §2, §3

A549 = assay: Cytotoxic MTS assay, A549 2D; assay type: cell-based; conditions: 72 h, median of five assays
Excerpt: as §2, §3

HCT116KO53 spheroids = assay: Spheroid viability assay (CellTiter-Glo 3D), HCT116 p53 KO spheroids; assay type: cell-based; conditions: 72 h, 100 pM to 50 μM
Procedure: as §4, §5

HCT116 par spheroids = assay: Spheroid viability assay (CellTiter-Glo 3D), HCT116 parental spheroids; assay type: cell-based; conditions: 72 h, 100 pM to 50 μM
Procedure: as §4, §5

K562 = assay: Cytotoxic MTS assay, K562; assay type: cell-based; conditions: 72 h, median of five assays
Excerpt: as §2, §3

BJ = assay: Cytotoxic MTS assay, BJ fibroblasts; assay type: cell-based; conditions: human fibroblasts, 72 h, median of five assays
Excerpt: as §2, §3

RAMOS = assay: Cytotoxic MTS assay, Ramos; assay type: cell-based; conditions: human leukemia cell line, 72 h, median of five assays
Excerpt: as §2, §3

HCT116KO53 = assay: Cytotoxic MTS assay, HCT116 p53 knockout 2D; assay type: cell-based; conditions: 72 h, median of five assays
Excerpt: as §2, §3

MRC-5 = assay: Cytotoxic MTS assay, MRC-5 fibroblasts; assay type: cell-based; conditions: 72 h, median of five assays
Excerpt: as §2, §3

MRC-5 LD = assay: Cytotoxic MTS assay, MRC-5 LD fibroblasts (doxorubicin-resistant); assay type: cell-based; conditions: 72 h, median of five assays
Excerpt: as §2, §3

CCRF-CEM = assay: Cytotoxic MTS assay, CCRF-CEM; assay type: cell-based; conditions: human leukemia cell line, 72 h, median of five assays
Excerpt: as §2, §3

RAJI = assay: Cytotoxic MTS assay, Raji; assay type: cell-based; conditions: human leukemia cell line, 72 h, median of five assays
Excerpt: as §2, §3

caspase 8 = assay: Caspase 8 activity in lysed HCT116 cells from 2D and spheroids; assay type: cell-based, human; conditions: HCT116 parental spheroids, 25 µM (cisplatin 15 μM), 12 h
Procedure: as §1

U2OS spheroids = assay: Spheroid viability assay (CellTiter-Glo 3D), U2OS spheroids; assay type: cell-based; conditions: human tumors spheroids, 72 h, 100 pM to 50 μM
Procedure: as §4, §5

[1] = tested on: mixed spheroids of MRC-5 fibroblasts with HCT116 or HCT116 p53 KO cells; assay: Mixed spheroid viability assay; assay type: cell-based, human; conditions: mixed spheroids of fibroblasts and tumor cells
Procedure: as §5, with “Mixed spheroids were made by mixing MRC-5 fibroblasts with HCT116 or HCT116 p53 KO cells at a ratio of 1:1 (1000 cells/well); the cells were added immediately one after the other, and the formation of spheroids was monitored for 48 hrs. The mixed spheroids of both cell types had similar morphological features. The cell” for “The cell”

[2] = HCT-116, human tumors spheroids
[3] = MRC5, doxorubicin-resistant human fibroblasts

SMILES	Caspase 3 activity, spheroid culture (caspase 3)	Caspase 3 activity, 2D culture (caspase 3)	IC50 (BJ LD; Fibroblast)	IC50 (U2OS; U2OS)	IC50 (A549 spheroids; A549, human tumors spheroids)	Caspase 9 activity, spheroid culture (caspase 9)	IC50 (HCT116 par; HCT-116, human tumors 2D)	IC50 (A549; A549, human tumors 2D)	IC50 (HCT116KO53 spheroids; [2])	IC50 (HCT116 par spheroids; [2])	IC50 (K562; K562, human leukemia cell line)	IC50 (BJ; BJ)	IC50 (RAMOS; Ramos)	IC50 (HCT116KO53; HCT-116, human tumors 2D)	IC50 (MRC-5; MRC5, human fibroblasts)	IC50 (MRC-5 LD; [3])	IC50 (CCRF-CEM; CCRF-CEM)	IC50 (RAJI; Raji)	Caspase 8 activity, spheroid culture (caspase 8)	IC50 (U2OS spheroids; U2OS)	also measured
C=C1C(=O)C23CCC(C(=C)C)C(C)(CCC(=O)O)C2CCC1C3 (stereo not shown) [Compound 1, Caracasine Acid]	absence of caspase activity	significant changes	7.04 µM	1.79 µM	> 50 µM	absence of caspase activity	1.73 µM	5.98 µM	> 50 µM	> 50 µM	4.77 µM	6.88 µM	0.62 µM	1.52 µM	6.48 µM	6.69 µM	0.38 µM	0.85 µM	absence of caspase activity	> 50 µM	Effect on primary leukocytes (normal human leukocytes): no significant effect
N.N.[Cl][Pt][Cl] [Cisplatin, reference compound]	caspase activation was observed	–	–	–	–	caspase activation was observed	–	–	–	–	–	–	–	–	–	–	–	–	caspase activation was observed	–	IC50 (BJ LD): 17.8 µM; IC50 (U2OS): 9.56 µM; IC50 (A549 spheroids; human tumors spheroids): 49.8 µM; IC50 [1]: 26.8 µM; IC50 (HCT116 par; human tumors 2D): 12.5 µM; IC50 (A549; human tumors 2D): 9.51 µM; IC50 (HCT116KO53 spheroids; human tumors spheroids): 45.7 µM; IC50 (HCT116 par spheroids; human tumors spheroids): 15.9 µM; IC50 (K562; human leukemia cell line): 6.98 µM; IC50 (BJ): 9.5 µM; IC50 (RAMOS): 0.56 µM; IC50 (HCT116KO53; human tumors 2D): 8.34 µM; IC50 (MRC-5; human fibroblasts): 3.98 µM; IC50 (MRC-5 LD; doxorubicin-resistant human fibroblasts): 23.5 µM; IC50 (CCRF-CEM): 4.62 µM; IC50 (RAJI): 0.68 µM; IC50 (U2OS spheroids): 21.8 µM
C=C1C(=O)C23CCC(C(=C)C)C(C)(CCC(=O)OC4CCCCC4)C2CCC1C3 (stereo not shown) [Compound 3, Caracasine Acid Cyclohexyl Ester]	absence of caspase activity	significant changes	6.5 µM	1.66 µM	> 50 µM	absence of caspase activity	1.59 µM	2.69 µM	> 50 µM	> 50 µM	2.21 µM	7.38 µM	0.78 µM	1.63 µM	5.45 µM	2.69 µM	0.38 µM	1.86 µM	absence of caspase activity	> 50 µM	–
